Some test systems named below: COLO 205; SNB-19; HCT-15; K562; Malme-3M; IGROV-1; UACC-62; SW-620; SK-MEL-28; OVCAR-3; U-251; TK-10; HL-60; A498; LOX IMVI; UO-31; A549.
Assay in all cases: NCI anticancer screen, dose series, 48 h

Each structure is given as a SMILES string.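 Values below derive from 48-hour exposures of cells grown in 96-well plates, with endpoints linearly interpolated between the two concentrations bracketing the appropriate inhibition level. The concentration for 50% growth inhibition is given as GI50.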 Active and inactive are the calls of the source. Cut-off read from the data, not from the text of the source: active = GI50 up to about 1.1 µM and inactive = higher.

Take `COC(=O)c1s/c(=N\C(=S)N(C)C)n(-c2ccc(Cl)cc2)c1C(=O)OC`: the GI50 in the test on COLO 205 is > 100 µM (inactive); in the test on SNB-19, > 100 µM (inactive); in the test with HCT-15, more than 100 µM; in the test with K562, > 100 µM (inactive); in the test with Malme-3M, > 100 µM (inactive); in the test on IGROV-1 it was > 10 µM (inactive). Further, the GI50 in the test on UACC-62 is > 10 µM (inactive); in the test with SW-620, > 100 µM (inactive); in the test with SK-MEL-28, > 100 µM (inactive); in the test with OVCAR-3, > 100 µM (inactive); with U-251, > 100 µM (inactive); in the test with TK-10 it was > 100 µM (inactive). Besides, the GI50 in the test with HL-60, in the test with A498, in the test on LOX IMVI, with UO-31 and in the test with A549 was > 100 µM (inactive) throughout.
Consider `CCC1C(=O)OCc2c1cc1n(c2=O)C(CC)c2c-1nc1ccccc1c2Cl` (stereo not drawn), for which the GI50 in the test on COLO 205 was 16.2 µM (inactive); in the test on SNB-19, 29.6 µM (inactive); in the test on HCT-15 it was 36.6 µM; with K562 it was 27.9 µM (inactive); in the test with Malme-3M, 38.8 µM (inactive); with IGROV-1 it was 19.9 µM (inactive). The GI50 with UACC-62 was 18.2 µM (inactive); with SW-620, 24 µM (inactive); with SK-MEL-28, 35 µM (inactive); with OVCAR-3, 20.3 µM (inactive); in the test on U-251 it was 19.3 µM (inactive); in the test with TK-10, 40.9 µM (inactive). For the same compound, the GI50 in the test on HL-60 was 22.2 µM (inactive); in the test with A498, 21.9 µM (inactive); with LOX IMVI, 33.1 µM (inactive); in the test with UO-31, 23.9 µM (inactive); in the test on A549, 26.7 µM (inactive).
As to `CN/N=C(/Cc1occc(=O)c1O)C(=O)Nc1ccc(C)c(C)c1`, the GI50 in the test with COLO 205 was > 100 µM (inactive); with SNB-19, > 100 µM (inactive); in the test with HCT-15 it was more than 100 µM; in the test with K562, > 100 µM (inactive); in the test with Malme-3M, > 100 µM (inactive); with IGROV-1, > 100 µM (inactive). Also, the GI50 with UACC-62, in the test with SW-620, in the test on SK-MEL-28, in the test with OVCAR-3, with U-251 and with TK-10 was > 100 µM (inactive) each time. Further, the GI50 with HL-60, in the test with A498, in the test with LOX IMVI, with UO-31 and in the test with A549 was > 100 µM (inactive) each time.
On to `O=C(Nc1c(Cl)cc([N+](=O)[O-])cc1Cl)C(=O)C(C1OC(=O)c2ccccc21)[N+](=O)[O-]` (stereo not drawn), for which the GI50 with COLO 205 was > 100 µM (inactive); in the test on SNB-19, > 100 µM (inactive); in the test on HCT-15 it was more than 100 µM; in the test on K562, > 100 µM (inactive); with Malme-3M, > 100 µM (inactive); in the test with IGROV-1, > 100 µM (inactive). Moreover, the GI50 in the test on UACC-62, in the test on SW-620, in the test on SK-MEL-28, in the test with OVCAR-3, in the test with U-251 and in the test with TK-10 was > 100 µM (inactive) throughout. The GI50 is > 100 µM (inactive) in the test with HL-60; 31.6 µM (inactive) in the test with A498; 81.7 µM (inactive) in the test with LOX IMVI; 23.5 µM (inactive) in the test with UO-31; > 100 µM (inactive) with A549.

For the origin of these results see ChEMBL document CHEMBL1201862, “PubChem BioAssay data set” (2004).
